Measured values reported in PMC6948153 (ACS chemical biology, 2019).
“Also recorded” adds a separate entry of the source. Like-named read-outs stand apart in the source and are kept apart here.

Tests used:
RhlI [1] = molecular target: T1, RhlI (Pseudomonas aeruginosa, UniProt P54291); settings: N-butyryl L-homoserine lactone even at 1 mM; ref 21 (Parsek et al.); cited from earlier work
RhlI [2] = molecular target: T1, RhlI; assay: RhlI enzymatic assay; assay type: biochemical; settings: for effect on RhlI activity (inhibition / activation): initial rate with increasing concentrations of compound
RhlI [3] = molecular target: T1, RhlI; assay: Inhibition of RhlI by inert alkyl-ACP / alkyl-CoA substrate analogs; assay type: biochemical; settings: for effect of preincubation of RhlI with inhibitor on % inhibition or IC50: inhibition neither slow-binding nor time-dependent; for inhibition mode: substrate-velocity measurements at different alkyl-ACP concentrations
tag-free RhlI = tag-free RhlI (Pseudomonas aeruginosa, UniProt P54291); assay: Km and IC50 with tag-free RhlI; assay type: biochemical
tag-free RhlI, sequence (P54291 whole entry): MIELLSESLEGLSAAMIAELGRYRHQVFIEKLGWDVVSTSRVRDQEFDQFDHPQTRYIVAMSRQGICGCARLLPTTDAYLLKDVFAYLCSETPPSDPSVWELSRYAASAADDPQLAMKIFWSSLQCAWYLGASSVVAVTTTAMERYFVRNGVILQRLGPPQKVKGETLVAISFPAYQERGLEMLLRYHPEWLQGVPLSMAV

RhlI [4] = molecular target: T1, RhlI; assay: Substrate kinetics of acyl-ACPs with RhlI; assay type: biochemical; settings: acyl-ACP substrate with RhlI
[5] = inert substrate analog with RhlI

T1 sequence (P54291 whole entry): as above

CSC[C@H]1O[C@@H](n2cnc3c(N)ncnc32)[C@H](O)[C@@H]1O [MTA]
inhibition of RhlI (RhlI [1]): weak inhibitors

CCCC(=O)N[C@H]1CCOC1=O [compound 1, N-butyryl-L-homoserine lactone]
effect on RhlI activity (inhibition / activation) (RhlI [2]): did not inhibit
inhibition of RhlI (RhlI [1]): no inhibition

CCCC(=O)N[C@@H]1CCOC1=O [compound 5, C4-D-HSL]
IC50 (RhlI [2]): 688 ± 91 µM
effect on RhlI activity (inhibition / activation) (RhlI [2]): decreased the rate

CCCC(=O)N[C@H]1CCSC1=O [compound 8, C4-L-HCTL]
effect on RhlI activity (inhibition / activation) (RhlI [2]): failed to inhibit; also recorded: did not inhibit

O=C(CCCc1ccccc1)N[C@@H]1CCOC1=O [compound 31, 4-phenylbutanoyl-D-HSL]
IC50 (RhlI [2]): 20 ± 10 µM

CCCC(=O)CC(=O)N[C@@H]1CCOC1=O [compound 34, 3-oxoC6-D-HSL]
EC50 (RhlI [2]): 224 ± 55 µM

CCCCCC(=O)CC(=O)N[C@@H]1CCOC1=O [compound 35, 3-oxoC8-D-HSL]
IC50 (RhlI [2]): 282 ± 34 µM

CCCCCCCCCCCC(=O)N[C@H]1CCSC1=O [compound 46, C12-L-HCTL]
IC50 (RhlI [2]): 387 ± 89 µM

CCCCCCCCCC(=O)CC(=O)N[C@H]1CCSC1=O [compound 55, 3-oxoC12-L-HCTL]
IC50 (RhlI [2]): 621 ± 50 µM

CCCCCCCCCCCC(=O)N[C@@H]1CCSC1=O [compound 60, C12-D-homocysteine thiolactone]
IC50 (RhlI [2]): 11 ± 1 µM
fold lower IC50 than L-thiolactone counterpart compound 46 (RhlI [2]; IC50 of 60 versus IC50 of 46): about 34 fold

CCCC(=O)CC(=O)N[C@@H]1CCSC1=O [compound 61, 3-oxoC6-D-HCTL]
EC50 (RhlI [2]): 1510 ± 110 µM
effect on RhlI activity (inhibition / activation) (RhlI [2]): activated

CCCCCC(=O)CC(=O)N[C@@H]1CCSC1=O [compound 62, 3-oxoC8-D-HCTL]
EC50 (RhlI [2]): 855 ± 74 µM
effect on RhlI activity (inhibition / activation) (RhlI [2]): activated

CCCCCCCC(=O)CC(=O)N[C@@H]1CCSC1=O [compound 63, 3-oxoC10-D-HCTL]
EC50 (RhlI [2]): 57 ± 23 µM
effect on RhlI activity (inhibition / activation) (RhlI [2]): activated

CCCCCCCCCC(=O)CC(=O)N[C@@H]1CCSC1=O [compound 64, 3-oxoC12-D-HCTL]
IC50 (RhlI [2]): 127 ± 70 µM
effect on RhlI activity (inhibition / activation) (RhlI [2]): inhibited

N[C@H]1CCOC1=O [compound 71, L-HSL]
effect on RhlI activity (inhibition / activation) (RhlI [2]): None of these compounds or combinations had any effect on RhlI activity

N[C@@H]1CCOC1=O [compound 72, D-HSL]
effect on RhlI activity (inhibition / activation) (RhlI [2]): None of these compounds or combinations had any effect on RhlI activity

N[C@H]1CCSC1=O [compound 73, L-HCTL]
effect on RhlI activity (inhibition / activation) (RhlI [2]): None of these compounds or combinations had any effect on RhlI activity

N[C@@H]1CCSC1=O [compound 74, D-HCTL]
effect on RhlI activity (inhibition / activation) (RhlI [2]): None of these compounds or combinations had any effect on RhlI activity

CCCC(=O)O [compound 75, butyric acid]
effect on RhlI activity (inhibition / activation) (RhlI [2]): None of these compounds or combinations had any effect on RhlI activity

CCCCCC(=O)O [compound 76, hexanoic acid]
effect on RhlI activity (inhibition / activation) (RhlI [2]): None of these compounds or combinations had any effect on RhlI activity

CCCCCCCCCC(=O)O [compound 78, decanoic acid]
effect on RhlI activity (inhibition / activation) (RhlI [2]): None of these compounds or combinations had any effect on RhlI activity

CCCCCCCCCCCC(=O)O [compound 79, dodecanoic acid]
effect on RhlI activity (inhibition / activation) (RhlI [2]): None of these compounds or combinations had any effect on RhlI activity

CCCCSCCNC(=O)CCNC(=O)[C@H](O)C(C)(C)COP(=O)(O)OP(=O)(O)OC[C@H]1O[C@@H](n2cnc3c(N)ncnc32)[C@H](O)[C@@H]1OP(=O)(O)O [compound 89, butyl-CoA]
inhibition of RhlI (RhlI [3]; up to 1 mM): not inhibiting

CCCCCCSCCNC(=O)CCNC(=O)[C@H](O)C(C)(C)COP(=O)(O)OP(=O)(O)OC[C@H]1O[C@@H](n2cnc3c(N)ncnc32)[C@H](O)[C@@H]1OP(=O)(O)O [compound 90, hexyl-CoA]
IC50 (RhlI [3]): 70 ± 10 µM

CCCCCCCCSCCNC(=O)CCNC(=O)[C@H](O)C(C)(C)COP(=O)(O)OP(=O)(O)OC[C@H]1O[C@@H](n2cnc3c(N)ncnc32)[C@H](O)[C@@H]1OP(=O)(O)O [compound 91, octyl-CoA]
IC50 (RhlI [3]): 5.1 ± 0.8 µM

butyl-ACP [compound 85]
IC50 with untagged RhlI compared with MBP-tagged enzyme (tag-free RhlI): almost identical
IC50 (RhlI [3]; [5]): 9.9 ± 4 µM
Ki (RhlI [3]; [5]): 15.9 ± 0.9 µM
effect of preincubation of RhlI with inhibitor on % inhibition or IC50 (RhlI [3]): did not significantly alter
inhibition mode (RhlI [3]): noncompetitive

butyryl-ACP [compound 80]
Km (RhlI [4]): 7.3 ± 2.1 µM
kcat (RhlI [4]): 0.0433 ± 0.005 s⁻¹
Km (RhlI [4]; listed as C4-ACP): 7 µM
Km with untagged RhlI compared with MBP-tagged enzyme (tag-free RhlI): almost identical

decanoyl-ACP [compound 83]
Km (RhlI [4]): 0.14 ± 0.04 µM
kcat (RhlI [4]): 0.00633 ± 0.00017 s⁻¹

decyl-ACP [compound 88]
IC50 (RhlI [3]; [5]): 0.1 ± 0.04 µM
Ki (RhlI [3]; [5]): 4.8 ± 0.3 µM
inhibition mode (RhlI [3]): noncompetitive

dodecanoyl-ACP [compound 84]
Km (RhlI [4]): 0.26 ± 0.03 µM
kcat (RhlI [4]): 0.01 ± 0.00017 s⁻¹
Km (RhlI [4]; listed as C12-ACP): ~0.2 µM

hexanoyl-ACP [compound 81]
Km (RhlI [4]): 1.2 ± 0.2 µM
kcat (RhlI [4]): 0.0143 ± 0.00033 s⁻¹

hexyl-ACP [compound 86]
IC50 (RhlI [3]; [5]): 0.7 ± 0.4 µM
Ki (RhlI [3]; [5]): 10.6 ± 1.1 µM
inhibition mode (RhlI [3]): noncompetitive

holo-ACP: holo acyl carrier protein, product of the RhlI reaction
inhibition of RhlI (RhlI [1]): weak inhibitors

octanoyl-ACP [compound 82]
Km (RhlI [4]): 0.4 ± 0.06 µM
kcat (RhlI [4]): 0.01 ± 0.00033 s⁻¹
Km with untagged RhlI compared with MBP-tagged enzyme (tag-free RhlI): almost identical

octyl-ACP [compound 87]
IC50 with untagged RhlI compared with MBP-tagged enzyme (tag-free RhlI): almost identical
IC50 (RhlI [3]; [5]): 0.06 ± 0.02 µM
Ki (RhlI [3]; [5]): 6.5 ± 0.7 µM
effect of preincubation of RhlI with inhibitor on % inhibition or IC50 (RhlI [3]): did not significantly alter
inhibition mode (RhlI [3]): noncompetitive
